In ChEMBL document CHEMBL1201862, “PubChem BioAssay data set” (2004):
Calls of active or inactive are those of the source.

Assays:
HEK293 [1] = test: NOD1 signaling inhibitors, primary screen, cell-based, luminescence, uHTS (AID 1578); assay type: functional; settings: Homo sapiens
HEK293 [2] = test: cells; assay type: functional, cell-based; settings: Homo sapiens
HEK293 [3] = test: cells; assay type: functional, cell-based; settings: Homo sapiens; remark: listed apart in the source
[4] = target: Nucleotide-binding oligomerization domain-containing protein 2 (Homo sapiens, UniProt Q9HC29); test: NOD2 signaling inhibitors, cell-based, luminescence, uHTS, HEK293 (AID 1566); assay type: functional
HEK293 [5] = test: NOD2 signaling inhibitors in MDP-stimulated cells, cell-based, uHTS, luminescence (AID 2001); assay type: functional; settings: Homo sapiens
HEK293 [6] = test: cells; assay type: functional, cell-based; settings: Homo sapiens; remark: listed apart in the source
Tumor necrosis factor = Tumor necrosis factor (Homo sapiens, UniProt P01375); test: TNFa-triggered NF-kB activation inhibitors, SAR follow-up, cell-based, revised (AID 2337); assay type: functional
[7] = target: Nucleotide-binding oligomerization domain-containing protein 1 (Homo sapiens, UniProt Q9Y239); test: NOD1 signaling inhibitors, SAR follow-up, revised (AID 2333); assay type: functional
[8] = target: T1, Microphthalmia-associated transcription factor (Homo sapiens, UniProt O75030); test: TRPM1 promoter luciferase signal decrease, dose response, MITF inhibitor project, cell-based, SK-MEL-5, cherry-picked, set 3 (AID 493073); assay type: functional
T1 sequence (O75030 whole entry): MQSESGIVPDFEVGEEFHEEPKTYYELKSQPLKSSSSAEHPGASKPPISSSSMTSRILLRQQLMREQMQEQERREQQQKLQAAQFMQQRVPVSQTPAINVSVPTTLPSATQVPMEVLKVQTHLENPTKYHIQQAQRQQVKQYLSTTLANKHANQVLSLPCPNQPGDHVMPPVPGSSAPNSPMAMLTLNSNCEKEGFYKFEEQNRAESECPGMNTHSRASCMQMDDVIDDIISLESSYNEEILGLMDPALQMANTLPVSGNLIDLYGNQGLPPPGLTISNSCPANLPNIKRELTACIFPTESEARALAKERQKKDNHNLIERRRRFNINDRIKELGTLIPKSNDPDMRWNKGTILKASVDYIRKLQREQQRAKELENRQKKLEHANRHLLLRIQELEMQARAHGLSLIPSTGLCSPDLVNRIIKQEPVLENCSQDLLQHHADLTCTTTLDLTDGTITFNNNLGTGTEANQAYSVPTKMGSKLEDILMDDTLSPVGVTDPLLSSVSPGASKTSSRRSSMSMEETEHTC

[9] = Shn3 3'UTR reporter inhibitors, dose response, cell-based, Clone20 osteoblasts, firefly luciferase, cherry-picked (AID 624132); assay type: functional;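 also: firefly luciferase luminescence from reporter carrying the Shn3 3'UTR in osteoblasts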
[10] = HepG2 cell cytotoxicity, dose response, cytotoxicity control for Shn3 inhibitor project, CellTiter-Glo, cherry-picked (AID 624134); assay type: functional, cell-based
[11] = control 3'UTR Renilla luciferase suppression, dose response, counter-screen for Shn3 inhibitor project, cell-based, Clone20-Shn3RL, cherry-picked (AID 624133); assay type: functional
HEK293 [12] = test: cells; settings: Homo sapiens
[13] = target: T2, RNA-binding protein pos-1 (Caenorhabditis elegans, UniProt G5EF15); test: inhibitors of POS-1/mex-3 RNA binding, dose response, biochemical, fluorescence polarization (AID 1964);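 also: purified POS-1 fused to maltose binding protein made in E. coli; potency of compounds blocking POS-1 binding to fluorescent RNA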
T2 sequence (G5EF15 whole entry): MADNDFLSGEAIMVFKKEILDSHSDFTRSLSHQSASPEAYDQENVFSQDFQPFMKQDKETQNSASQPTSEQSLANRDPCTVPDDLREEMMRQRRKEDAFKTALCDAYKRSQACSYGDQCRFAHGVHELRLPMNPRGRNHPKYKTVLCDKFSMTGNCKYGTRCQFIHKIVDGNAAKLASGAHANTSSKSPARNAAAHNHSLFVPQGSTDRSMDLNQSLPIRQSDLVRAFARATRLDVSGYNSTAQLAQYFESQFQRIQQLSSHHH

Aspartyl aminopeptidase = Aspartyl aminopeptidase (Plasmodium falciparum 3D7, UniProt Q8I2J3)
Procathepsin L = Procathepsin L (Homo sapiens, UniProt P07711)
SUMO-activating enzyme [14] = target: T3, SUMO-activating enzyme (Homo sapiens, UniProt Q9UBT2); test: SUMOylation inhibitor hit validation, confirmation, SUMOylation inhibitor project, biochemical, AlphaScreen (AID 2018); assay type: functional
[15] = target: T4, Zinc finger protein mex-5 (Caenorhabditis elegans, UniProt Q9XUB2); test: MEX-5/TCR-2 RNA interaction inhibitors, dose response, biochemical, C. elegans, fluorescence polarization (AID 1960)
T4 sequence (Q9XUB2 whole entry): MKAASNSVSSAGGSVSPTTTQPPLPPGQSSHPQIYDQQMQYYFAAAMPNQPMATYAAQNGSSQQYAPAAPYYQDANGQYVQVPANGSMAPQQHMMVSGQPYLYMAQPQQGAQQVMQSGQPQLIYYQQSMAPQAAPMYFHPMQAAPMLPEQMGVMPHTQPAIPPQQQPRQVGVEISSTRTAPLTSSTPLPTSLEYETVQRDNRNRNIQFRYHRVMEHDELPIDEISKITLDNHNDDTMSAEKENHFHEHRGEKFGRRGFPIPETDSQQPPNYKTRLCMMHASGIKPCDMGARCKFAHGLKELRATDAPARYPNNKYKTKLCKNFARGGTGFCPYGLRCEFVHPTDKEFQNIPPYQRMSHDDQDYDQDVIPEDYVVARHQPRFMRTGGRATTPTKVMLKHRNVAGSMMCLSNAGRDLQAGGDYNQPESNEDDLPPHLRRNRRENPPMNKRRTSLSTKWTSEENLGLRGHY

Large T antigen = Large T antigen (Simian virus 40, UniProt P03070); assay type: functional, Betapolyomavirus macacae;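 also: Confirmatory-stage PubChem screen for compounds that inhibit SV40 T antigen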
SUMO-activating enzyme [16] = target: T3, SUMO-activating enzyme; test: inhibitors of in vitro SUMOylation cascade, primary screen, biochemical, HTRF, uHTS (AID 2006); assay type: protein-complex assay
[17] = target: Intestinal-type alkaline phosphatase (Homo sapiens, UniProt P09923); test: activation of human intestinal alkaline phosphatase – biochemical, dose response (AID 488873); assay type: functional
[18] = target: Intestinal-type alkaline phosphatase (Mus musculus, UniProt P24822); test: mouse intestinal alkaline phosphatase activators, dose response, biochemical, luminescence, uHTS hits (AID 488783); assay type: functional
[19] = target: T5, Alkaline phosphatase, tissue-nonspecific isozyme (Homo sapiens, UniProt P05186); test: TNAP enzyme activators, dose response, selectivity assay for mouse IAP activator project, biochemical, TNAP isozyme, mouse IAP uHTS hits (AID 488880); assay type: functional
T5 sequence (P05186 whole entry): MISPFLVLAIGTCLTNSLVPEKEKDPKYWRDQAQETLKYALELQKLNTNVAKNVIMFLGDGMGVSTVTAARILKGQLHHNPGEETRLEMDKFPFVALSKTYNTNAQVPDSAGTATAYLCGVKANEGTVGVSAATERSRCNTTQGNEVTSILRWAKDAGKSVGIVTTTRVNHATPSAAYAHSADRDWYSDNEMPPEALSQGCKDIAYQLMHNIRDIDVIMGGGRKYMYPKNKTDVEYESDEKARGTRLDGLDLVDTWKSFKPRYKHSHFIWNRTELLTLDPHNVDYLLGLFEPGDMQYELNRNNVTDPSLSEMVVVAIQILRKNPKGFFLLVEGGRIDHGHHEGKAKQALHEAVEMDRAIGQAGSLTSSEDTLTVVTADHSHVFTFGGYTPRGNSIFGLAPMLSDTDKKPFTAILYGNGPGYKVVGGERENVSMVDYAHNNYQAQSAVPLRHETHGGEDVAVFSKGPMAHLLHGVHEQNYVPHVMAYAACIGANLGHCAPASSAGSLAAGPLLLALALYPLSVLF

[20] = target: Dual specificity tyrosine-phosphorylation-regulated kinase 1A (Rattus norvegicus, UniProt Q63470); assay type: biochemical, Homo sapiens
cells [21] = assay type: functional, cell-based
[22] = target: T6, Trace amine-associated receptor 1 (Homo sapiens, UniProt Q96RJ0); test: Fluorescence-based cell-based high throughput dose response assay to identify agonists of the human trace amine associated receptor 1 (TAAR1).; assay type: functional
T6 sequence (Q96RJ0 whole entry): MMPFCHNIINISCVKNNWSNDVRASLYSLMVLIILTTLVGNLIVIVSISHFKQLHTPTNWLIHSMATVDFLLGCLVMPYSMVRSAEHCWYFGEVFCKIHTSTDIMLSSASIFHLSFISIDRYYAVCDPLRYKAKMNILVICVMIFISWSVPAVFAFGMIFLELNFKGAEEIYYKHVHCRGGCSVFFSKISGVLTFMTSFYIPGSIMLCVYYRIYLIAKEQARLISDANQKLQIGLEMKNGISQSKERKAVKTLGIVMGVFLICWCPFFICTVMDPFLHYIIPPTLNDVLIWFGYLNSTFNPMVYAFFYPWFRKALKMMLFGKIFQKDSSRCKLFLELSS

Albumin = Albumin (Bos taurus, UniProt P02769); test: Counterscreen for inhibitors of T-cell receptor (TCR)-CD3 interaction: Fluorescence-based biochemical high throughput dose response assay to identify inhibitors of T-cell receptor (TCR)-CD3 interaction using a TAMRA-labeled BSA probe.; assay type: functional
[23] = target: T6, Trace amine-associated receptor 1; test: Counterscreen for agonists of the human trace amine associated receptor 1 (hTAAR1): Fluorescence-based cell-based high throughput dose response assay to identify hTAAR1 agonist that also desensitize TAAR1 receptor response.; assay type: functional
cells [24] = assay type: functional, cell-based; remark: listed apart in the source
Leucine aminopeptidase = target: T7, Leucine aminopeptidase (Plasmodium falciparum 3D7, UniProt Q8IL11); test: P. falciparum M17LAP inhibitors, primary screen, biochemical, fluorogenic H-Leu-NHMec substrate, 1536-well (AID 1619); assay type: functional
T7 sequence (Q8IL11 whole entry): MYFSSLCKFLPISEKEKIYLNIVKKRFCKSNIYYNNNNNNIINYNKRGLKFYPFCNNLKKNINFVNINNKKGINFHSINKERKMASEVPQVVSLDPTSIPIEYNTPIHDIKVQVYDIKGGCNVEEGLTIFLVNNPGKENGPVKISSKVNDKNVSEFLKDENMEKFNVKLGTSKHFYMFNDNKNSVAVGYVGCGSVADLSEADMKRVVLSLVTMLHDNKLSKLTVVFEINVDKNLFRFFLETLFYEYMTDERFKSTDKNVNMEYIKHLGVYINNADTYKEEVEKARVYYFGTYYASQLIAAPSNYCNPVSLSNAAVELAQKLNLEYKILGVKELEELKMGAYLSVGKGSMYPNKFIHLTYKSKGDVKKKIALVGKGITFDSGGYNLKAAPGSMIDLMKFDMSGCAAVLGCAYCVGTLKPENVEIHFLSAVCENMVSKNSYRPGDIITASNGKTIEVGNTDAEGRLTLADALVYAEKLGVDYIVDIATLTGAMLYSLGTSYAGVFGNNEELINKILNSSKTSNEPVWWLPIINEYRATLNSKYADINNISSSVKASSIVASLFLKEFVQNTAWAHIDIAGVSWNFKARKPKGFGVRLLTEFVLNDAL

Bcl-2-like protein 10 = target: T8, Bcl-2-like protein 10 (Homo sapiens, UniProt Q9HD36); test: displacers of TR3 peptide from Bcl-B, primary screen, selectivity assay for Bfl-1 inhibitor project, biochemical, fluorescence polarization, FITC-TR3 peptide (AID 748);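 also: fluorescence polarization from a fluorescein-labelled TR3 peptide binding purified Bcl-B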
T8 sequence (Q9HD36 whole entry): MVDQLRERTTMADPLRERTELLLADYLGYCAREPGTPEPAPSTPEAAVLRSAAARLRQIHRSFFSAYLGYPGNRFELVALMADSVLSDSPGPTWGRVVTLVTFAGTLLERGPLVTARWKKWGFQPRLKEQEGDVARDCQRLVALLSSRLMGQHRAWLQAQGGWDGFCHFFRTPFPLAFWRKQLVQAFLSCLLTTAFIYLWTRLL

[25] = target: Glyceraldehyde-3-phosphate dehydrogenase (Homo sapiens, UniProt P04406)
Estrogen receptor beta = Estrogen receptor beta (Homo sapiens, UniProt Q92731); test: ERβ–SRC-3 coactivator interaction inhibitors, confirmation, orthogonal assay, biochemical, ELISA, streptavidin-HRP readout (AID 1060)
[26] = target: Alkaline phosphatase, placental type (Homo sapiens, UniProt P05187); test: PLAP enzyme inhibitors, confirmation, biochemical, luminescence (AID 1512); assay type: functional
[27] = target: T5, Alkaline phosphatase, tissue-nonspecific isozyme; test: human TNAP enzyme inhibitors, SAR follow-up, biochemical, luminescent, dose response (AID 1056)

Sequence of Large T antigen (P03070 whole entry): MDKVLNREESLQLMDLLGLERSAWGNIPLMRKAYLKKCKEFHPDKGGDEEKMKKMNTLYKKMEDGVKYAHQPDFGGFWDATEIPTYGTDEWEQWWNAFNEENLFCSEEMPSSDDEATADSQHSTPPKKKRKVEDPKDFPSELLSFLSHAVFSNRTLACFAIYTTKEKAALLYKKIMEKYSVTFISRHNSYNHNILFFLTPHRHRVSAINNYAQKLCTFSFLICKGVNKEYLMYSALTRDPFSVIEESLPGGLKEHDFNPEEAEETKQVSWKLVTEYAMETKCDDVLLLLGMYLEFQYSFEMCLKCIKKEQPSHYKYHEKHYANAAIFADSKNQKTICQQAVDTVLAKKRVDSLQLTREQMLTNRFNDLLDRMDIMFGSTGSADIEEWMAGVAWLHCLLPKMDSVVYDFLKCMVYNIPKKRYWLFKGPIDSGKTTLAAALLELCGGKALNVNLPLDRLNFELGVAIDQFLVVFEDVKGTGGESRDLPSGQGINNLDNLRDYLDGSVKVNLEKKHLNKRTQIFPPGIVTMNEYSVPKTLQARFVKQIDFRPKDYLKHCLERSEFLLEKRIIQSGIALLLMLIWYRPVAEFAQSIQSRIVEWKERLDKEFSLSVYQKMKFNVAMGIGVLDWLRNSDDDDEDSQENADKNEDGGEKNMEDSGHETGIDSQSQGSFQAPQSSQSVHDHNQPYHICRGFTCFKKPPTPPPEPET
Sequence of Intestinal-type alkaline phosphatase (Mus musculus, UniProt P24822) (P24822 whole entry): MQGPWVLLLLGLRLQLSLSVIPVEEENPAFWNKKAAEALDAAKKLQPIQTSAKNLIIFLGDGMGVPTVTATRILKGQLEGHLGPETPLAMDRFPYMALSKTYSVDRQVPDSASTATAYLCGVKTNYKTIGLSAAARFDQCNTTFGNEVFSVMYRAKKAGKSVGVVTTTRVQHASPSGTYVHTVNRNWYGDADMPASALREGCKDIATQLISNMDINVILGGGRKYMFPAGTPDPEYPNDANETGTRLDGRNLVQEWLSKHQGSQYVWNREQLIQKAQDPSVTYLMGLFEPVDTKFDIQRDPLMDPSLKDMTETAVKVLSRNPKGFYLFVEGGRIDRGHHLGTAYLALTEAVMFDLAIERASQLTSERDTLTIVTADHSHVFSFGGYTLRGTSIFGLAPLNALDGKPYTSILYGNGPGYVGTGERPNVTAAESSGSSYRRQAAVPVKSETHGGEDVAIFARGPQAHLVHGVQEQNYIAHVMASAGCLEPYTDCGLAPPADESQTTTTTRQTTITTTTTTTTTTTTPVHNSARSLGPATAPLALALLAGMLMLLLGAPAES
T3 sequence (Q9UBE0 whole entry): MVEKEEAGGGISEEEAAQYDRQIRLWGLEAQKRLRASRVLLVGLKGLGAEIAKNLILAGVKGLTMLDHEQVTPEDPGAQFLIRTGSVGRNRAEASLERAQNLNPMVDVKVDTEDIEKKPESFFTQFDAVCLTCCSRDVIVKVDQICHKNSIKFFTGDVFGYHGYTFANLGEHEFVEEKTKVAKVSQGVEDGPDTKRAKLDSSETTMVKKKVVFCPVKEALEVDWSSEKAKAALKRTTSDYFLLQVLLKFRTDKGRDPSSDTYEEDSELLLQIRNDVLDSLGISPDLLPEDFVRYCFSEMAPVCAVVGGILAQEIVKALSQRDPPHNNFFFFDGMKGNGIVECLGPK
T3 sequence (Q9UBT2 whole entry): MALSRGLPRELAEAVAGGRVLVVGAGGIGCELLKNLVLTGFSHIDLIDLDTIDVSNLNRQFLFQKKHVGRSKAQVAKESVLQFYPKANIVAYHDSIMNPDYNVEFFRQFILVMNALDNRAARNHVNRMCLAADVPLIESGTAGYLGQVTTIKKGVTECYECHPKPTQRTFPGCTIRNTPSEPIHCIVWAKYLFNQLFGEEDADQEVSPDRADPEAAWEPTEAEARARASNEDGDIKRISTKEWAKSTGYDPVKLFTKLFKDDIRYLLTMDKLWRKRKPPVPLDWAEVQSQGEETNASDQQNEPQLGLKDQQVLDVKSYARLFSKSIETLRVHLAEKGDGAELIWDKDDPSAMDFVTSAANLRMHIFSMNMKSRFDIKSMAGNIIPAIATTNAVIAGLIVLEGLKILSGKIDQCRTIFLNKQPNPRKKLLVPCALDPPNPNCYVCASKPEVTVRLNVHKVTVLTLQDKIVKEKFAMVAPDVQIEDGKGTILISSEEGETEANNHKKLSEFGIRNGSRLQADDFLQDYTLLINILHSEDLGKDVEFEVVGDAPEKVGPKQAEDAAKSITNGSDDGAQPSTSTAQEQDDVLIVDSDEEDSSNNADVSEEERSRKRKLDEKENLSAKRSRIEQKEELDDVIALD
Sequence of Intestinal-type alkaline phosphatase (Homo sapiens, UniProt P09923) (P09923 whole entry): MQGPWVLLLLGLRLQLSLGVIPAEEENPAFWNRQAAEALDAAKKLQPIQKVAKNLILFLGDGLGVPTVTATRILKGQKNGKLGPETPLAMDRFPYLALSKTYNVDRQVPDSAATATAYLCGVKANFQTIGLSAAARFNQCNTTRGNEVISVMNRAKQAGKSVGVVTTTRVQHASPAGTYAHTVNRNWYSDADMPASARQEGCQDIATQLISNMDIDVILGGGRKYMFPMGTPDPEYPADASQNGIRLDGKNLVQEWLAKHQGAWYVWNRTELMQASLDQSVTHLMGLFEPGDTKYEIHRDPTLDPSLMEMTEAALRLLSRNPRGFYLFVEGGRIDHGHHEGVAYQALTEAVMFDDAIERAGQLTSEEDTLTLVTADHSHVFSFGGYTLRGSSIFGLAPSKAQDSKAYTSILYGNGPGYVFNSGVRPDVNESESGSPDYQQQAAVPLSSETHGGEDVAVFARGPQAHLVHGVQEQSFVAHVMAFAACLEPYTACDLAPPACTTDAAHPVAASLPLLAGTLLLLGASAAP
Sequence of Glyceraldehyde-3-phosphate dehydrogenase (P04406 whole entry): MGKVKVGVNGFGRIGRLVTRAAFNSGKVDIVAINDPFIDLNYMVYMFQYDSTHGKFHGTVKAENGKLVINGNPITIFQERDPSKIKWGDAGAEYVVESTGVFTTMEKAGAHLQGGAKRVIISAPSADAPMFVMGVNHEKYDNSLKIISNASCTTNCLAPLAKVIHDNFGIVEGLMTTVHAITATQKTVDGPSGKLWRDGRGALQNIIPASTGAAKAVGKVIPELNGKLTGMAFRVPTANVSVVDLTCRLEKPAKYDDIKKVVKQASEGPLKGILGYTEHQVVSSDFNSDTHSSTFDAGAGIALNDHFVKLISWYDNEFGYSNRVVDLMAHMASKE
Sequence of Nucleotide-binding oligomerization domain-containing protein 1 (Q9Y239 whole entry, the tested form may be a part): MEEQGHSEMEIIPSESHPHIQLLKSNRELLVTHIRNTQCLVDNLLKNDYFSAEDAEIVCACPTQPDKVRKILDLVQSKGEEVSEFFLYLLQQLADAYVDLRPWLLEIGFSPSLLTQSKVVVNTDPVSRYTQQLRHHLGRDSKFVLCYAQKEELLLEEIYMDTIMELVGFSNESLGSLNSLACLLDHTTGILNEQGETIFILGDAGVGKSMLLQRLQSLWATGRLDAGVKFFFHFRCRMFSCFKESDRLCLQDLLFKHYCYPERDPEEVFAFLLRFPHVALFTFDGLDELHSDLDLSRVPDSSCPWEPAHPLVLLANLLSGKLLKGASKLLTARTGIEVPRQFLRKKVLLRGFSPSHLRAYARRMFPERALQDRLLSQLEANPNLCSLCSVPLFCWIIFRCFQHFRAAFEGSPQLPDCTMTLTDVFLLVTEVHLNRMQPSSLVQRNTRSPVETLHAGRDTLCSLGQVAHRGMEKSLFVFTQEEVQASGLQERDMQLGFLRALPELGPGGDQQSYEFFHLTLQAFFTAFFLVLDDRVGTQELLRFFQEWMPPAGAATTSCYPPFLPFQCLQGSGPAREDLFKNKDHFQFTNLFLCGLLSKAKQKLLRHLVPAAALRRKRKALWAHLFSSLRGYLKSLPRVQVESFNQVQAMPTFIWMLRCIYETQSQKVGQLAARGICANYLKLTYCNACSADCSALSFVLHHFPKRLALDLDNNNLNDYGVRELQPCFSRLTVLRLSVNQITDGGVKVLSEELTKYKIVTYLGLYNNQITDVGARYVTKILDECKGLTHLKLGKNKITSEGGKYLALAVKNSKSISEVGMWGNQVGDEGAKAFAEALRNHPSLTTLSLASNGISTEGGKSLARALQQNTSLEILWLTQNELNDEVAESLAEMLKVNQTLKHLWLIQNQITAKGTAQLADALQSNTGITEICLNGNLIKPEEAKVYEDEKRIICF
Sequence of Estrogen receptor beta (Q92731 whole entry): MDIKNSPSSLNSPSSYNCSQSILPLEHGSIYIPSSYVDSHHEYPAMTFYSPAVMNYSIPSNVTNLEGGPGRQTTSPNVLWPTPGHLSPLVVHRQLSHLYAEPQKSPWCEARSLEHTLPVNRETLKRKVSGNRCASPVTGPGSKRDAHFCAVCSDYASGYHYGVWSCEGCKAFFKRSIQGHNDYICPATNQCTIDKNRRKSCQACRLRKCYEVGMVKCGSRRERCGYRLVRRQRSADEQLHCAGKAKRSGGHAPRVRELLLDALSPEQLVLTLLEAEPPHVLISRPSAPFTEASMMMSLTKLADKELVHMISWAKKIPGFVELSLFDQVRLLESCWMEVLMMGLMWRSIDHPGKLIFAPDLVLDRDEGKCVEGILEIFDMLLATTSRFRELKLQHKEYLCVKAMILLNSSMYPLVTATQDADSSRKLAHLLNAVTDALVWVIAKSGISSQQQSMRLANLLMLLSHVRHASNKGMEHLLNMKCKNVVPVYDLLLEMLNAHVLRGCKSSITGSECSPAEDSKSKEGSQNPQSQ
Sequence of Procathepsin L (P07711 whole entry): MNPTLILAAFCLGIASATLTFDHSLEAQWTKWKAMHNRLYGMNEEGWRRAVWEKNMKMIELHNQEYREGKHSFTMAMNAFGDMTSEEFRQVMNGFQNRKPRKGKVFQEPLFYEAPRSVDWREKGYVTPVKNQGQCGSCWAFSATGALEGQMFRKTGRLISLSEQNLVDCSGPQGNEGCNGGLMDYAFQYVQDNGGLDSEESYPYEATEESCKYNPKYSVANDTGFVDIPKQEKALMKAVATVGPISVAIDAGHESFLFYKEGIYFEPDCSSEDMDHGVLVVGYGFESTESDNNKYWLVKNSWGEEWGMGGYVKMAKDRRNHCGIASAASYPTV

CCOC(=O)N1CCN(C(=O)c2ccc(Cn3c(=S)[nH]c4ccc(Br)cc4c3=O)cc2)CC1
EC50 (HEK293 [1]): 4.23 µM (active) | IC50 (HEK293 [2]): 9.03 µM (active) | IC50 (HEK293 [3]): > 20 µM (inactive) | EC50 [4]: 4.18 µM (active) | IC50 (HEK293 [5]): 6.26 µM (active) | IC50 (HEK293 [6]): > 20 µM (inactive) | IC50 (Tumor necrosis factor): 4.69 µM (active) | IC50 [7]: 4.77 µM (active) | AC50 [8]: 3.52 µM (active) | AC50 [9]: 1.25 µM (active) | AC50 [10]: > 70 µM (inactive) | AC50 [11]: 0.793 µM (active) | IC50 (HEK293 [12]): 18.7 µM (active)

O=C(N/N=C/c1ccc(O)c(O)c1)N/N=C/c1ccc(O)c(O)c1
EC50 [13]: 16.2 µM (active) | IC50 (Aspartyl aminopeptidase): 2.79 µM (active) | IC50 (Procathepsin L): > 59.6 µM (not active) | IC50 (SUMO-activating enzyme [14]): 0.69 µM (active) | EC50 [15]: 4.86 µM (inconclusive) | IC50 (Large T antigen): 0.73 µM (active) | IC50 (SUMO-activating enzyme [16]): 2.11 µM (active) | EC50 [17]: 66.2 µM (active) | EC50 [18]: 4.96 µM (active) | EC50 [19]: 79.4 µM (active) | AC50 [20]: 1.63 µM (active) | IC50 (cells [21]): > 29.9 µM (inactive) | EC50 [22]: 0.647 µM (active) | IC50 (Albumin): > 94.1 µM (inactive) | IC50 [23]: > 9.97 µM (active) | EC50 (cells [24]): > 29.9 µM (inactive)

O=C(CSc1nnc(-c2ccccc2)[nH]1)c1ccc(O)c(O)c1
IC50 (Leucine aminopeptidase): 8.31 µM (active) | IC50 (Bcl-2-like protein 10): 31.5 µM (active) | IC50 [25]: > 100 µM (not active) | IC50 (Large T antigen): 15.2 µM (active) | IC50 (Estrogen receptor beta): 15.6 µM (not active) | EC50 [17]: 42.4 µM (active) | IC50 [26]: 11.4 µM (active) | IC50 [27]: 5.9 µM (active) | EC50 [18]: 63.4 µM (active) | EC50 [19]: 36.4 µM (active)
